Experimental data taken from US12630532B2, “Indole-substituted quinolines and their combination with Plk1 inhibitors for the treatment of cancer” (UNIVERSITY OF KENTUCKY RESEARCH FOUNDATION, priority 2021, dated 2026).

Tests used:
LS174T cells = experiment: Cell proliferation inhibition assay (5 days, cell counting); type: cell-based
Experimental: (§1) Cell proliferation inhibition assays were done following a previous report (32). Cancer cells were seeded into 24-well plates at a density of 20,000 cells per well in 1 mL of culture medium and were cultured overnight at 37° C. Compounds and the vehicle control (DMSO) were added to the cells. After 5 days, the medium was removed, and 100 μL of trypsin was added. The cells were resuspended in phosphate-buffered saline (PBS) and were counted by Vi-CELL XR 2.03 (Beckman Coulter, Inc. USA). The ratio R of the number of viable cells in the compound treatment group to the number of viable cells in DMSO treatment group was taken as relative growth, and the percentage growth inhibition was calculated as (1−R)*100.

[1] = tested on: liver cancer cell line HepG2; experiment: Cell proliferation inhibition assay; type: cell-based; details: HepG2, 5 days (FIG. 1B)
Experimental: as §1

[2] = tested on: prostate cancer cell line PC-3; experiment: Cell proliferation inhibition assay; type: cell-based; details: PC-3, 5 days (FIG. 1B)
Experimental: as §1

[3] = tested on: sarcoma cell line SK-LMS-1; experiment: Cell proliferation inhibition assay; type: cell-based; details: SK-LMS-1, 5 days (FIG. 1B)
Experimental: as §1

TOPFlash Wnt reporter = TOPFlash Wnt reporter assay in stable HEK293T cells; type: cell-based; details: 24 hours treatment
Experimental: Wnt reporter assay was described previously (25). We subcloned Super 8×TOPFlash (provided by Professor Randall Moon, University of Washington) into the pGL4.83 [hRlucP/Puro] Vector and transfected it into HEK293T cells. A stable HEK293T cell line containing the TOPFlash reporter was established using puromycin selection (25). To assess if compounds of interest blocked the downstream signaling transduction pathway of β-catenin, the stable reporter cells were seeded to a 12-well plate and treated with 25 mM LiCl to stabilize β-catenin for 16 hours to activate Wnt signaling and then candidate compounds at predetermined concentrations for another 24 hours. The cells were lysed and centrifuged to obtain supernatants which were analyzed by FB 12 Single Tube Luminometer by Titertek-Berthold (Berthold Detection Systems GmbH, Elsässerstr, Germany).

[4] = tested on: Wnt signaling target genes c-Myc and axin2; experiment: Western blotting of Wnt signaling target genes in LS174T cells; type: cell-based; details: 24 hours
Experimental: (§2) Western blotting were performed according to previous procedures (25). Cells were split into 12-well plates. After 24 hours, compounds at indicated final concentrations were added to each well for another 24 hours unless otherwise noted. DMSO was used as a control. Cells were lysed in the appropriate volume of lysis buffer: 50 mM HEPES, 100 mM NaCl, 2 mM EDTA, 1% (v/v) glycerol, 50 mM NaF, 1 mM Na3VO4, 1% (v/v) Triton X-100, with protease inhibitors. Cell lysates were centrifuged, and supernatants were mixed with 6× protein loading buffer and boiled. The obtained samples were analyzed with standard western blotting methods with indicated antibodies.

AMPK = AMPK activation (western blotting, pAMPK/pACC) in LS174T cells; type: cell-based
Experimental: as §2

[5] = tested on: mitochondrial ETC (electron transport chain); experiment: Seahorse assay (OCR) in LS174T cells; type: cell-based
Experimental: Seahorse assays were carried out following a published procedure (25). Briefly, 2.5×10^4 cells in 80 μL of medium were seeded in XF96 Cell Culture microplate for all experiments. On the next day, cell culture media were replaced with Seahorse XF modified media. Cells were treated with 1 μM of oligomycin A, 1.0 μM FCCP and mixture of 1.0 μM of rotenone and 1.0 μM of antimycin A in standard mitochondrial stress test conditions. To determine the uncoupler effects, FCCP was replaced with an equal volume of DMSO, or a compound to be tested in DMSO solution.

[6] = tested on: mitochondrial ETC complex I; experiment: Mitochondrial ETC complex activity measurements using PMP-permeabilized cells; type: cell-based
Experimental: Mitochondrial ETC complex activity measurements were taken using the Agilent Seahorse Assay with XF PMP (Agilent, Santa Clara, CA) following manufacturer's instructions. Adherent monolayer cells were gently washed with mitochondrial assay solution (MAS) (220 mM mannitol, 70 mM sucrose, 10 mM KH2PO4, 5 mM MgCl2, 2 mM HEPES, 1 mM EGTA, and 0.2% (w/v) fatty acid free BSA) and cell growth media was replaced with MAS supplemented with 4 mM adenosine diphosphate (ADP), 10 mM pyruvate, and 1 nM PMP. Following calibration, the assay was immediately performed by measuring baseline with two cycles of 0.5 min mixing, 0.5 min waiting, and 2 min measuring. After baseline measurements, sequential injections of DMSO, compounds of interest or 2 μM rotenone, 10 mM succinate, 2 μM antimycin A, and a combination of 10 mM ascorbate and 100 μM TMPD were also performed with each followed by two cycles of 0.5 min mixing, 0.5 min waiting, and 2 min measuring. Data were then normalized to cell counts using the Biotek Cytation 1 (BioTek Instruments, Winooski, VT, USA).

Plk1 = experiment: Western blotting of cell signaling pathways in LS174T cells; type: cell-based; details: LS174T colon cancer cells, 24 hours
Experimental: as §2

Solubility comparison = type: physicochemical; details: relative comparison

SMILES: CN(C)c1ccc2cc(-c3cn(C)c4ccccc34)c(N)nc2c1 [ISQ-1, N^7,N^7-Dimethyl-3-(1-methyl-1H-indol-3-yl)quinoline-2,7-diamine]
- percentage inhibition of LS174T cell proliferation at 500 nM, compared among ISQs (FIG. 2B) (LS174T cells; 500 nM): more active
- inhibition at 0.062 µM (LS174T cells; Homo sapiens, LS174T, 120 h, 62 nM, 5 days): 16 ± 2%
- inhibition at 0.125 µM (LS174T cells; Homo sapiens, LS174T, 120 h, 125 nM, 5 days): 22 ± 5%
- inhibition at 0.25 µM (LS174T cells; Homo sapiens, LS174T, 120 h, 250 nM, 5 days): 38 ± 2.2%
- inhibition at 0.5 µM (LS174T cells; Homo sapiens, LS174T, 120 h, 500 nM, 5 days): 91 ± 4.3%
- inhibition at 0.3 µM (LS174T cells; Homo sapiens, LS174T, read-out: Inhibition % on LS174T cells Proliferation 0.3 uM Inhib. %): 83.9%
- inhibition at 1 µM (LS174T cells; Homo sapiens, LS174T, read-out: Inhibition % on LS174T cells Proliferation 1 uM Inhib. %): 92.7%
- inhibition at 3 µM (LS174T cells; Homo sapiens, LS174T, read-out: Inhibition % on LS174T cells Proliferation 3 uM Inhib. %): 99.3%
- inhibited in vitro cell growth (LS174T cells; LS174T, 5 days (FIG. 1B)): nanomolar concentrations
- inhibited in vitro cell growth [1]: nanomolar concentrations
- inhibited in vitro cell growth [2]: nanomolar concentrations
- inhibited in vitro cell growth [3]: nanomolar concentrations
- TOPFlash Wnt reporter luciferase luminescence (TOPFlash Wnt reporter): inhibited TOPFlash Wnt reporter
- effect on Wnt signaling target genes c-Myc and axin2 [4]: inhibited
- AMPK activation (AMPK): activated AMPK in a dose-dependent manner
- ETC complex V inhibition (oligomycin replaced with compound) [5]: did not inhibit ETC complex V
- ETC complex I inhibition (pyruvate/NADH-linked respiration) ([6]; pyruvate substrate): inhibited complex I
- inhibition of complexes II, III, or IV (respiration after succinate) ([6]; succinate added): ruled out the possibility that ISQ-1 inhibited complexes II, III, or IV
- Plk1 expression upon drug treatment (Plk1): induced
- solubility (Solubility comparison): better than that of ISQ-7
